Data as given in ChEMBL document CHEMBL4837257, “Discovery of the Oxadiazine FRM-024: A Potent CNS-Penetrant Gamma Secretase Modulator” (J Med Chem, 2021).
Active and inactive are the calls of the source. No cut-off for these calls is given here.

Legend:
Cytochrome P450 2D6 = Cytochrome P450 2D6 (Homo sapiens, UniProt P10635); assay: Inhibition of CYP2D6 (unknown origin); type: ADME
[1] = Genotoxicity in Salmonella typhimurium by mini-Ames test; type: toxicity; conditions: salmonella enterica subsp. enterica serovar typhimurium
Cytochrome P450 1A2 = target: T1, Cytochrome P450 1A2 (Homo sapiens, UniProt P05177); assay: Inhibition of CYP1A2 in human hepatocytes upto 50 uM incubated for 72 hrs; type: ADME, cell-based, Hepatocyte
T1 sequence (P05177 whole entry): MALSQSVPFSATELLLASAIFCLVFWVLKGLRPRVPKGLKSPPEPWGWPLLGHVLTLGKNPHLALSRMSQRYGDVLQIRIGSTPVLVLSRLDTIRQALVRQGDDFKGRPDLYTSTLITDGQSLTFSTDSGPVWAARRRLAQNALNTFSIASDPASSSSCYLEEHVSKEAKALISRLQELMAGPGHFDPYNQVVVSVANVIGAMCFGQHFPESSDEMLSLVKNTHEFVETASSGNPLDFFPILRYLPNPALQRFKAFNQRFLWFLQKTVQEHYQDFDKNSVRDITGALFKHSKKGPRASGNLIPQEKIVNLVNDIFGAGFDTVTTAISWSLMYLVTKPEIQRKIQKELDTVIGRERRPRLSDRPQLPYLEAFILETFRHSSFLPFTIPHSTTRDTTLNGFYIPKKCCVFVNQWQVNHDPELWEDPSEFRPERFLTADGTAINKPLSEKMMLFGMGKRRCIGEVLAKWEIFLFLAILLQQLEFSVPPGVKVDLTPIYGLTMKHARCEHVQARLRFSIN

[2] = Unbound clearance in human hepatocytes; type: ADME, cell-based, Hepatocyte
[3] = Toxicity in guinea pig assessed as effect on ion channel function in heart by Langendorff test; type: tissue-based, Cavia porcellus; conditions: in vivo
Homo sapiens = species on record: Homo sapiens; assay: Inhibition of adenosine transporter (unknown origin) at 10 uM relative to control
Cytochrome P450 2B6 = target: T2, Cytochrome P450 2B6 (Homo sapiens, UniProt P20813); assay: Inhibition of CYP2B6 in human hepatocytes upto 50 uM incubated for 72 hrs; type: ADME, cell-based, Hepatocyte
T2 sequence (P20813 whole entry): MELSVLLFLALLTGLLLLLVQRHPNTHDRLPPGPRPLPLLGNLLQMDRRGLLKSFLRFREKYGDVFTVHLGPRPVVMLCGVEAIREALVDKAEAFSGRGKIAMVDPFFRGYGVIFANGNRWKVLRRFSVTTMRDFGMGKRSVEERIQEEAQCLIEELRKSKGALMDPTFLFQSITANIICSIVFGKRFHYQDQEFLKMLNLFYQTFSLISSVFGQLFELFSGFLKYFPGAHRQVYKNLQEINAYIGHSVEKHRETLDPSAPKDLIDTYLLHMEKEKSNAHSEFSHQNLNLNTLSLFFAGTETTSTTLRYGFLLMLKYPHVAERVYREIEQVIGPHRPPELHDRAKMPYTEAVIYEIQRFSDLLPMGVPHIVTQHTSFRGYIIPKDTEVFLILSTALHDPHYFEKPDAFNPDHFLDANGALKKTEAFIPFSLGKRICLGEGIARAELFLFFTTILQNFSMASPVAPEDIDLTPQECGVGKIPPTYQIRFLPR

[4] = Apparent permeability across apical to basolateral side in human Caco2 cells; type: ADME, cell-based; conditions: Caco-2
[5] = Drug metabolism in monkey hepatocytes assessed as mono and di-oxidative metabolites formation after 4 hrs; type: ADME, cell-based, Macaca mulatta, Hepatocyte; conditions: rhesus monkey
[6] = Cmax in rat at 3 mg/kg, po; type: ADME, organism-based; design: route oral, dose 3 mg/kg; conditions: in vivo
[7] = target: Cannabinoid receptor 1 (Homo sapiens) (UniProt P21554); assay: Inhibition of Cannabinoid receptor 1 (unknown origin) at 10 uM relative to control
[8] = target: D(2) dopamine receptor (Homo sapiens) (UniProt P14416); assay: Inhibition of dopamine 2-like receptor (unknown origin) at 10 uM relative to control
Rattus norvegicus [9] = assay: In vivo modulation of gamma secretase in rat assessed as reduction in Abeta37 levels in brain by measuring AUC(0 to 24 hrs) at 30 mg/kg, po by ELISA; type: functional; design: scale not given: the % may be the effect or the level left
Gamma-secretase [10] = assay: Inhibition of gamma secretase (unknown origin) assessed as reduction in notch cleavage; type: functional, Homo sapiens
[11] = AUClast in dog at 10 mg/kg, po; type: ADME, organism-based, Canis lupus familiaris; design: route oral, time 0 - last, dose 10 mg/kg; conditions: in vivo
[12] = Half life in rat at 1 mg/kg, iv; type: ADME, organism-based; conditions: in vivo
[13] = In vivo modulation of gamma secretase in nonhuman primate assessed as reduction in Abeta42 levels in CSF at 30 mg/kg, po measured after 12 hrs by ELISA relative to control; type: functional, Primates, Cerebrospinal fluid; design: scale not given: the % may be the effect or the level left
[14] = Volume of distribution at steady state in dog at 0.5 mg/kg, iv; type: ADME, organism-based, Canis lupus familiaris; conditions: in vivo, read-out: Vdss
[15] = Genotoxicity in human peripheral blood lymphocytes by micronucleus assay; type: cell-based; conditions: pbl
Gamma-secretase [16] = assay: (§1) Modulation of gamma-secretase in human H4 cells expressing human wild type APP751 assessed as reduction in amyloid beta42 level incubated overnight by ELISA; type: cell-based
[17] = target: Gamma-secretase (Homo sapiens) (UniProt Q96BI3+Q9NZ42+Q8WW43+P49768+Q92542+P49810); assay: as §1; type: cell-based; conditions: filed as modulator
[18] = target: Prostaglandin G/H synthase 1 (Homo sapiens) (UniProt P23219); assay: Effect on COX1 activity (unknown origin)
[19] = target: 5-hydroxytryptamine receptor 2B (Homo sapiens) (UniProt P41595); assay: Inhibition of serotonin 2B receptor (unknown origin) at 10 uM relative to control
[20] = AUClast in nonhuman primate at 10 mg/kg, po; type: ADME, organism-based; design: time 0 - last, route oral, dose 10 mg/kg; conditions: primates, in vivo
[21] = Bioavailability in dog at 0.5 mg/kg, iv; type: ADME, organism-based, Canis lupus familiaris; conditions: in vivo
Cytochrome P450 3A4 = Cytochrome P450 3A4 (Homo sapiens, UniProt P08684); assay: Inhibition of CYP3A4 in human hepatocytes upto 50 uM incubated for 72 hrs; type: ADME, cell-based, Hepatocyte
[22] = Volume of distribution at steady state in rat at 1 mg/kg, iv; type: ADME, organism-based; conditions: in vivo, read-out: Vdss
Rattus norvegicus [23] = assay: In vivo modulation of gamma secretase in rat assessed as reduction in Abeta37 levels in CSF by measuring AUC(0 to 24 hrs) at 30 mg/kg, po by ELISA; type: functional, Cerebrospinal fluid; design: scale not given: the % may be the effect or the level left
[24] = Bioavailability in nonhuman primate at 1 mg/kg, iv; type: ADME, organism-based; conditions: primates, in vivo
[25] = Drug metabolism in human hepatocytes assessed as mono and di-oxidative metabolites formation after 4 hrs; type: ADME, cell-based, Hepatocyte
[26] = Cmax in dog at 10 mg/kg, po; type: ADME, organism-based, Canis lupus familiaris; design: route oral, dose 10 mg/kg; conditions: in vivo
[27] = Half life in nonhuman primate at 1 mg/kg, iv; type: ADME, organism-based; conditions: primates, in vivo
[28] = Toxicity in human cardiomyocyte assessed as change in cell health parameters upto 10 uM; conditions: stem cell-derived cardiomyocyte
Rattus norvegicus [29] = assay: In vivo modulation of gamma secretase in rat assessed as reduction in Abeta40 levels in brain by measuring AUC(0 to 24 hrs) at 30 mg/kg, po by ELISA; type: functional; design: scale not given: the % may be the effect or the level left
[30] = Drug metabolism in dog hepatocytes assessed as mono and di-oxidative metabolites formation after 4 hrs; type: ADME, cell-based, Canis lupus familiaris, Hepatocyte
[31] = Toxicity in guinea pig assessed as effect on repolarization in heart by Langendorff test; type: tissue-based, Cavia porcellus; conditions: in vivo
[32] = AUClast in rat at 3 mg/kg, po; type: ADME, organism-based; design: time 0 - last, route oral, dose 3 mg/kg; conditions: in vivo
[33] = Toxicity in rat assessed as effect on cardiac output by telemetry; conditions: in vivo

Sequence of 5-hydroxytryptamine receptor 2B (Homo sapiens) (P41595 whole entry): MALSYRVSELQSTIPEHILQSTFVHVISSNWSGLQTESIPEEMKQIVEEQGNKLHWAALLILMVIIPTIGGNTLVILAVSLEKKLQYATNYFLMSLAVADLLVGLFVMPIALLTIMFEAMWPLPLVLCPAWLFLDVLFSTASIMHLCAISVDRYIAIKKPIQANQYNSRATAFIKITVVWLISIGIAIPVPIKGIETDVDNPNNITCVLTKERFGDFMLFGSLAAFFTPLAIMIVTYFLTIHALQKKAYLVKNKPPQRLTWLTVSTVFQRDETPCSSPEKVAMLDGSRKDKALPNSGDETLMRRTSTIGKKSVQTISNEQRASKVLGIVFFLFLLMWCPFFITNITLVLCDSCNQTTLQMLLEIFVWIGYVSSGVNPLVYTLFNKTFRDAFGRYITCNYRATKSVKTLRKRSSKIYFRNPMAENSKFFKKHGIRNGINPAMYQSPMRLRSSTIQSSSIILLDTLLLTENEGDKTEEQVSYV
Sequence of Cytochrome P450 3A4 (P08684 whole entry): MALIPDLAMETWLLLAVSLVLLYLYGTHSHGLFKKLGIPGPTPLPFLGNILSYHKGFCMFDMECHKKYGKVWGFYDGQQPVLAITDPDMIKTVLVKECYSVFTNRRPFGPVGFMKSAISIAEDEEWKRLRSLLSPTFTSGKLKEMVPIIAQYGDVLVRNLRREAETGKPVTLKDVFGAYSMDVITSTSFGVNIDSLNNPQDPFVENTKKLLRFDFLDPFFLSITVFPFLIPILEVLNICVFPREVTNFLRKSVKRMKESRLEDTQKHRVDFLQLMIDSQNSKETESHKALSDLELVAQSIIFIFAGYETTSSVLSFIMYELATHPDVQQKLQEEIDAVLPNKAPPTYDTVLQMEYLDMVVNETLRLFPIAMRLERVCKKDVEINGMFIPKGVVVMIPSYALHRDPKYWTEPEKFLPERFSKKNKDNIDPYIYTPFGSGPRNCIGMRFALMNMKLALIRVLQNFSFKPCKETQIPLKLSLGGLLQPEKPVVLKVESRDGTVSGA
Sequence of Prostaglandin G/H synthase 1 (Homo sapiens) (P23219 whole entry): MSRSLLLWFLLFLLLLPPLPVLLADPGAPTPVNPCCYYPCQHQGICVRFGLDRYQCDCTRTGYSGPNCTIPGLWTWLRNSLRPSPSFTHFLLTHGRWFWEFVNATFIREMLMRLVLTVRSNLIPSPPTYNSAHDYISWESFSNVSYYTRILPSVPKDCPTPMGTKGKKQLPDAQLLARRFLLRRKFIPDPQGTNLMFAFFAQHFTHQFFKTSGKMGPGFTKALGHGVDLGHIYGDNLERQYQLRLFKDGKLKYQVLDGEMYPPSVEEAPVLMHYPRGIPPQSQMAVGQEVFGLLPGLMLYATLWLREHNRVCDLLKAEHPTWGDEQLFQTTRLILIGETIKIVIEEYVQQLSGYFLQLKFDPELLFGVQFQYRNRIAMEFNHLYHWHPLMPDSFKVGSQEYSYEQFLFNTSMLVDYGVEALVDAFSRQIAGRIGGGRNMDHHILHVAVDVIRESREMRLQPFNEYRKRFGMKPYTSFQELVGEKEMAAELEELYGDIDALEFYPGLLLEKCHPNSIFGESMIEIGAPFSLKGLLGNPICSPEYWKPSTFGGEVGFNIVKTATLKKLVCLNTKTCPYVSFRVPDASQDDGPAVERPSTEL
Sequence of Cytochrome P450 2D6 (P10635 whole entry): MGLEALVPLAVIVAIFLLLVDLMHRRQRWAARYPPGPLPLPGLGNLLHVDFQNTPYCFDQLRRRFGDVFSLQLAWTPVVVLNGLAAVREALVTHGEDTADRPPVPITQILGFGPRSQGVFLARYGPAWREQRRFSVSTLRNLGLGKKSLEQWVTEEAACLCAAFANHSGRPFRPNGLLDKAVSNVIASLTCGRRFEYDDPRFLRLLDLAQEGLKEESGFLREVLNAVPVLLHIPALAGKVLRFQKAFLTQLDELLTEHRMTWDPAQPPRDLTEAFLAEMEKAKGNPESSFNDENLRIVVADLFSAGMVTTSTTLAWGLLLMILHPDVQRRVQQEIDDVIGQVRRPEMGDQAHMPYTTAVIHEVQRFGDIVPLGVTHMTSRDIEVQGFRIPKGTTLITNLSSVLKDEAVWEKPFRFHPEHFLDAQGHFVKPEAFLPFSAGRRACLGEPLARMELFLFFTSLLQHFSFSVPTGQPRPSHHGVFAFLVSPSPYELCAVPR
Sequence of D(2) dopamine receptor (Homo sapiens) (P14416 whole entry): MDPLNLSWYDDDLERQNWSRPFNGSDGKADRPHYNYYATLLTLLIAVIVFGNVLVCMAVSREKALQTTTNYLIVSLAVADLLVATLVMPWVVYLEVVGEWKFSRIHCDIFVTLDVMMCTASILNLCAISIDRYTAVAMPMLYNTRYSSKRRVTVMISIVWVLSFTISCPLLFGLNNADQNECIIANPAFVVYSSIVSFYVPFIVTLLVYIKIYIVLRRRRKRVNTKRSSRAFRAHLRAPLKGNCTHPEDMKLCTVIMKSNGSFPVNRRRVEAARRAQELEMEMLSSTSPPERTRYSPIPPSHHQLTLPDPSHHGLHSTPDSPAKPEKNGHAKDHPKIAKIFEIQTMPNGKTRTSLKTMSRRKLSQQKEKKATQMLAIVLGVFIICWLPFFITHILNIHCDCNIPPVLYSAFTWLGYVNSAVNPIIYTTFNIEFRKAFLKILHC
Sequence of Cannabinoid receptor 1 (Homo sapiens) (P21554 whole entry): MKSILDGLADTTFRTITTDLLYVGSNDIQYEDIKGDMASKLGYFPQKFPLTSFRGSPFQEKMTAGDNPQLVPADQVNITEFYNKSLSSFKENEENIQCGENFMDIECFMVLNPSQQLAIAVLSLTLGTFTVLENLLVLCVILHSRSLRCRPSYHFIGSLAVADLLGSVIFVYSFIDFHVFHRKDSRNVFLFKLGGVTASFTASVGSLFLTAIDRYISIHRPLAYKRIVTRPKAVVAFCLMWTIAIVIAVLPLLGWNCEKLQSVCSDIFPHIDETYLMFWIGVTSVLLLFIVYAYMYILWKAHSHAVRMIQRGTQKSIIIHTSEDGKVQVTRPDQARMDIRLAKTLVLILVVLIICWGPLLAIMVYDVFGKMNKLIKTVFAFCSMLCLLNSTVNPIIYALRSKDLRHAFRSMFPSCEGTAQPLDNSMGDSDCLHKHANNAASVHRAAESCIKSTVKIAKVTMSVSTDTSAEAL

- IC50 (Cytochrome P450 2D6): 4500 nM
- inhibition (INH) (Cytochrome P450 1A2): Not Active
- CL free [2]: 4 mL/min/kg
- inhibition (Homo sapiens): > 50%
- inhibition (INH) (Cytochrome P450 2B6): Not Active
- Papp A→B [4]: 6.6 ×10⁻⁶ cm/s
- Drug metabolism [5]: Metabolite_Detected
- Cmax [6]: 754 nM
- inhibition [7]: > 50%
- inhibition [8]: > 50%
- IC50 (Gamma-secretase [10]): > 10000 nM
- AUC(0-t) [11]: 32.9 µM·h
- half-life [12]: 8.7 h
- Vd [14]: 0.8 L/kg
- EC50 (Gamma-secretase [16]): 9 nM
- EC90 [17]: 123 nM
- Activity [18]: inactive
- inhibition [19]: > 50%
- AUC(0-t) [20]: 55.9 µM·h
- bioavailability [21]: 66%
- inhibition (INH) (Cytochrome P450 3A4): Not Active
- Vd [22]: 2.4 L/kg
- bioavailability [24]: 113%
- Drug metabolism [25]: Metabolite_Detected
- Cmax [26]: 4030 nM
- half-life [27]: 3.9 h
- Drug metabolism [30]: Metabolite_Detected
- AUC(0-t) [32]: 11.6 µM·h
SMILES: COc1nc(C2=NOC(C3CC3)C(c3ccc(Cl)cc3)N2)ccc1-n1cnc(C)c1 (stereo not drawn)
- Activity [1]: Non-Toxic
- Activity [3]: Non-Toxic
- Activity (Rattus norvegicus [9]): 88%
- Activity [13]: 92%
- Activity [15]: Non-Toxic
- Activity (Rattus norvegicus [23]): 380%
- Activity [28]: Non-Toxic
- Activity (Rattus norvegicus [29]): 25%
- Activity [31]: Non-Toxic
- Activity [33]: Non-Toxic
